The text below walks through data of patent US9376425B2, “Heterocyclic compounds as MDM2 inhibitors for the treatment of cancer” (AMGEN INC., priority 2011, dated 2016).

Bounds are passed on as bounds.

In this experiment the target is T1, human MDM2 (GST-hMDM2 1-188), interaction with biotinylated-p53 (1-83) (Homo sapiens, UniProt Q00987).
T1 construct: Amino acid residues 1-188 of human MDM2 were expressed; made in house; host or cells: Escherichia coli
T1 sequence (Q00987 1-188): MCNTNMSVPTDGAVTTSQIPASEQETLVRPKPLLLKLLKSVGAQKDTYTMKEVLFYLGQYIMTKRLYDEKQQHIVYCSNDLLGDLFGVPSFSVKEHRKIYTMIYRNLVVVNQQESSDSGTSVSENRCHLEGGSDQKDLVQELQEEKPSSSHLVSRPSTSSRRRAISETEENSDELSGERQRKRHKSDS
The experiment in a line: improved HTRF assay (HTRF2 assay), inhibition of HDM2-p53 interaction. The experiment is classed as binding. The settings on record: 0.2 nM GST-hMDM2, 0.5 nM biotinylated-p53, 100 mM KF. On the procedure:
Residues 1-83 of human p53 were expressed as an amino-terminal AviTag™-TrxA-6xHis fusion protein (biotinylated p53) in E. coli. Each protein was purified from cell paste by affinity chromatography.
Specifically, 10 uL of GST-hMDM2 was incubated with 10 ul of diluted compound (various concentrations, serially diluted) in 10% DMSO for 20 minutes at room temperature. 20 uL of biotinylated-p53 was added to the GST-hMDM2+ compound mixture, and then incubated at room temperature for 60 min. 10 uL of detection buffer consisting of SA-XLent, anti-GST cryptate antibody and KF was added to GST-hMDM2, biotinylated-p53 and compound reaction and left at room temperature to reach equilibrium for >4 hrs. The final concentration of DMSO in the reaction was 2%. Time-resolved fluorescence readings were measured on a microplate multilabel reader. Percentage of inhibition was calculated relative to nutlin-3.
In the case of `CC(C)(C)S(=O)(=O)C[C@H](C1CC1)N1C(=O)[C@@H](CC(N)=O)O[C@H](c2cccc(Cl)c2)[C@H]1c1ccc(Cl)cc1` (single isomer, unassigned) [Example 356, 2-((2R,5R,6R)-4-((S)-2-(tert-Butylsulfonyl)-1-cyclopropylethyl)-6-(3-chlorophenyl)-5-(4-chlorophenyl)-3-oxomorpholin-2-yl)acetamide or 2-((2S,5R,6R)-4-((S)-2-(tert-butylsulfonyl)-1-cyclopropylethyl)-6-(3-chlorophenyl)-5-(4-chlorophenyl)-3-oxomorpholin-2-yl)acetamide], half-maximal inhibition (IC50) required 10 nM.
As for `C[C@@H](CS(=O)(=O)C(C)(C)C)N1C(=O)[C@@H](CC(=O)NS(C)(=O)=O)O[C@H](c2cccc(Cl)c2)[C@H]1c1ccc(Cl)cc1` (single isomer, unassigned) [Example 238], the figure is 1 nM.
`CC(C)(C)S(=O)(=O)[C@H]1CCCC[C@@H]1N1C(=O)[C@@H](CC(=O)O)O[C@H](c2cccc(Cl)c2)[C@H]1c1ccc(Cl)cc1` [Example 249, 2-((2R,5R,6R)-4-((1S,2S)-2-(tert-butylsulfonyl)cyclohexyl)-6-(3-chlorophenyl)-5-(4-chlorophenyl)-3-oxomorpholin-2-yl)acetic acid] showed an IC50 of 4 nM.
The result for `CC(C)(C)S(=O)(=O)C[C@H](C1CC1)N1C(=O)[C@@H](Cc2ncn[nH]2)O[C@H](c2cccc(Cl)c2)[C@H]1c1ccc(Cl)cc1` (single isomer, unassigned) [Example 389, (2R,5R,6R)-2-((1H-1,2,4-Triazol-5-yl)methyl)-4-((S)-2-(tert-butylsulfonyl)-1-cyclopropylethyl)-6-(3-chlorophenyl)-5-(4-chlorophenyl)morpholin-3-one or (2S,5R,6R)-2-((1H-1,2,4-triazol-5-yl)methyl)-4-((S)-2-(tert-butylsulfonyl)-1-cyclopropylethyl)-6-(3-chlorophenyl)-5-(4-chlorophenyl)morpholin-3-one] reads 19 nM.
Compound `CC[C@@H](CS(=O)(=O)C(C)(C)C)N1C(=O)[C@@H](CC(=O)O)O[C@H](c2cc(Cl)cc(Cl)c2)[C@H]1c1ccc(Cl)cc1` (single isomer, unassigned) [Example 148, 2-((2R,5R,6R)-5-(4-chlorophenyl)-6-(3,5-dichlorophenyl)-4-((S)-1-(tert-butylsulfonyl)butan-2-yl)-3-oxomorpholin-2-yl)acetic acid or 2-((2S,5R,6R)-5-(4-chlorophenyl)-6-(3,5-dichlorophenyl)-4-((S)-1-(tert-butylsulfonyl)butan-2-yl)-3-oxomorpholin-2-yl)acetic acid] came in with an IC50 of 7 nM.
Compound `O=C(O)C[C@H]1O[C@H](c2cccc(Cl)c2)[C@@H](c2ccc(Cl)cc2)N([C@H](CN(c2ccccc2F)S(=O)(=O)C2CC2)CC(F)(F)F)C1=O` (single isomer, unassigned) [Example 278] yielded an IC50 of 84 nM.
As for `CC[C@@H](CS(=O)(=O)[C@H](C)C(C)C)N1C(=O)[C@H](CC(=O)O)O[C@H](c2cccc(Cl)c2)[C@H]1c1ccc(Cl)cc1` (single isomer, unassigned) [Example 283], the figure is 3 nM; as for `CC[C@@H](CS(=O)(=O)C(C)(C)C)N1C(=O)[C@@H](CC(=O)O)O[C@H](c2cccc(Cl)c2)[C@H]1c1ccc(Cl)s1` (single isomer, unassigned) [Example 218, 2-((2R,5S,6R)-4-((S)-1-(tert-butylsulfonyl)butan-2-yl)-6-(3-chlorophenyl)-5-(5-chlorothiophen-2-yl)-3-oxomorpholin-2-yl)acetic acid or 2-((2S,5S,6R)-4-((S)-1-(tert-butylsulfonyl)butan-2-yl)-6-(3-chlorophenyl)-5-(5-chlorothiophen-2-yl)-3-oxomorpholin-2-yl)acetic acid], 1 nM.
As for `O=C1[C@@H](Cc2nnn[nH]2)O[C@H](c2cccc(Cl)c2)[C@@H](c2ccc(Cl)cc2)N1[C@H](CN(c1ccccc1F)S(=O)(=O)C1CC1)C1CC1` (single isomer, unassigned) [Example 398, N-((S)-2-((2R,5R,6R)-2-((1H-Tetrazol-5-yl)methyl)-6-(3-chlorophenyl)-5-(4-chlorophenyl)-3-oxomorpholino)-2-cyclopropylethyl)-N-(2-fluorophenyl)cyclopropanesulfonamide or N-((S)-2-((2S,5R,6R)-2-((1H-tetrazol-5-yl)methyl)-6-(3-chlorophenyl)-5-(4-chlorophenyl)-3-oxomorpholino)-2-cyclopropylethyl)-N-(2-fluorophenyl)cyclopropanesulfonamide], the figure is less than 1 nM.
Regarding `NC(=O)C[C@H]1O[C@H](c2cccc(Cl)c2)[C@@H](c2ccc(Cl)cc2)N([C@H](CN(c2c(F)cccc2F)S(=O)(=O)C2CC2)C2CC2)C1=O` (single isomer, unassigned) [Example 358, 2-((2R,5R,6R)-6-(3-Chlorophenyl)-5-(4-chlorophenyl)-4-((S)-1-cyclopropyl-2-(N-(2,6-difluorophenyl)cyclopropanesulfonamido)ethyl)-3-oxomorpholin-2-yl)acetamide or 2-((2S,5R,6R)-6-(3-chlorophenyl)-5-(4-chlorophenyl)-4-((S)-1-cyclopropyl-2-(N-(2,6-difluorophenyl)cyclopropanesulfonamido)ethyl)-3-oxomorpholin-2-yl)acetamide], the IC50 was less than 1 nM.
As for `CC(C)(C)S(=O)(=O)C[C@H](C1CCC1)N1C(=O)[C@@H](CC(=O)O)O[C@H](c2cccc(Cl)c2)[C@H]1c1ccc(Cl)cc1` (single isomer, unassigned) [Example 271, 2-((2R,5R,6R)-4-((S)-2-(tert-Butylsulfonyl)-1-cyclobutylethyl)-6-(3-chlorophenyl)-5-(4-chlorophenyl)-3-oxomorpholin-2-yl)acetic acid or 2-((2S,5R,6R)-4-((S)-2-(tert-butylsulfonyl)-1-cyclobutylethyl)-6-(3-chlorophenyl)-5-(4-chlorophenyl)-3-oxomorpholin-2-yl)acetic acid], the figure is 5 nM; as for `CC[C@@H](CS(=O)(=O)C(C)(C)C)N1C(=O)[C@@H](CC(=O)OC)O[C@H](c2cccc(Cl)c2)[C@H]1c1ccc(Cl)cc1` [Example 149, Methyl 2-((2R,5R,6R)-4-((S)-1-(tert-butylsulfonyl)butan-2-yl)-6-(3-chlorophenyl)-5-(4-chlorophenyl)-3-oxomorpholin-2-yl)acetate], 30 nM; as for `CC(C)(C)S(=O)(=O)C[C@H](C1CC1)N1C(=O)[C@@H](CC(=O)Nc2ccccc2)O[C@H](c2cccc(Cl)c2)[C@H]1c1ccc(Cl)cc1` (single isomer, unassigned) [Example 350, 2-((2R,5R,6R)-4-((S)-2-(tert-Butylsulfonyl)-1-cyclopropylethyl)-6-(3-chlorophenyl)-5-(4-chlorophenyl)-3-oxomorpholin-2-yl)-N-phenylacetamide or 2-42S,5R,6R)-4-((S)-2-(tert-butylsulfonyl)-1-cyclopropylethyl)-6-(3-chlorophenyl)-5-(4-chlorophenyl)-3-oxomorpholin-2-yl)-N-phenylacetamide], 16 nM.
